Data on 29 compounds can be found in US20240245673A1, “Papain-like protease (PLpro) inhibitors” (Pfizer Inc., priority 2022, published 2024).

The assay addresses SARS-CoV-2 Papain like protease (PLpro) (Severe acute respiratory syndrome coronavirus 2 (2019-nCoV) (SARS-CoV-2), UniProt P0DTD1). As to the kind of experiment: Papain Like Protease (PLpro) biochemical assay with profluorogenic substrate Z-RLRGG-AMC. Conditions: SARS-CoV-2 PLpro 6.25 nM, 25 μM Z-RLRGG-AMC substrate, 60 minute reaction.

The structures appear in SMILES notation. Where two headings read alike, the source gives them in different places.

Take `Cc1cc(CN(C)C(=O)c2ncc[nH]2)ccc1C(=O)N[C@H](C)c1cc(-c2cnn(C)c2)nc2ccccc12` [Example 265, (R)-N-methyl-N-(3-methyl-4-((1-(2-(1-methyl-1H-pyrazol-4-yl)quinolin-4-yl)ethyl)carbamoyl)benzyl)-1H-imidazole-2-carboxamide]: the IC50 (read-out: IC50) is 0.14 µM.

For `Cc1cc(CN(C)Cc2cscn2)ccc1C(=O)N[C@H](C)c1cc(-c2cnn(C)c2)nc2ccccc12` [Example 266, (R)-2-methyl-4-((methyl(thiazol-4-ylmethyl)amino)methyl)-N-(1-(2-(1-methyl-1H-pyrazol-4-yl)quinolin-4-yl)ethyl)benzamide], where the note is “read-out: IC50”, the concentration for half-maximal inhibition (IC50) worked out at 0.024 µM. For `CC(=O)N(Cc1ccc(C(=O)N[C@H](C)c2cc(-c3cnn(C)c3)nc3ccccc23)c(C)c1)Cc1cscn1` [Example 267, (R)-2-methyl-N-(1-(2-(1-methyl-1H-pyrazol-4-yl)quinolin-4-yl)ethyl)-4-((N-(thiazol-4-ylmethyl)acetamido)methyl)benzamide], under “read-out: IC50”, the IC50 came out at 0.21 µM. The same measure, in the same setting: for `Cc1cc(CN(Cc2cscn2)S(C)(=O)=O)ccc1C(=O)N[C@H](C)c1cc(-c2cnn(C)c2)nc2ccccc12` [Example 268, (R)-2-methyl-N-(1-(2-(1-methyl-1H-pyrazol-4-yl)quinolin-4-yl)ethyl)-4-((N-(thiazol-4-ylmethyl)methylsulfonamido)methyl)benzamide] the value was 0.139 µM.

With `Cc1cc(C(C)NC(=O)c2cscn2)ccc1C(=O)N[C@H](C)c1cc(-c2cnn(C)c2)nc2ccccc12` (stereo partly drawn) [Example 269, N-(1-(3-methyl-4-(((R)-1-(2-(1-methyl-1H-pyrazol-4-yl)quinolin-4-yl)ethyl)carbamoyl)phenyl)ethyl)thiazole-4-carboxamide], the IC50 (read-out: IC50) came to 0.041 µM. For `Cc1cc(C(C)NC(=O)c2ncc[nH]2)ccc1C(=O)N[C@H](C)c1cc(-c2cnn(C)c2)nc2ccccc12` (stereo partly drawn) [Example 270, N-(1-(3-methyl-4-(((R)-1-(2-(1-methyl-1H-pyrazol-4-yl)quinolin-4-yl)ethyl)carbamoyl)phenyl)ethyl)-1H-imidazole-2-carboxamide], where the note is “read-out: IC50”, the IC50 came out at 0.037 µM. On the same count and under the same terms, for `Cc1cc(C(=O)NCc2nccn2C)ccc1C(=O)N[C@H](C)c1cc(-c2cnn(C)c2)nc2ccccc12` [Example 271] the value was 0.005 µM. Where the note is “IC50 (μM)”, `Cc1cc(COCc2cscn2)ccc1C(=O)N[C@H](C)c1cc(-c2cnn(C)c2)nc2ccccc12` [Example 274, (R)-2-methyl-N-(1-(2-(1-methyl-1H-pyrazol-4-yl)quinolin-4-yl)ethyl)-4-((thiazol-4-ylmethoxy)methyl)benzamide] registered an IC50 of 0.002 µM.

Consider `Cc1ccc(N2CCNCC2)cc1C(=O)NC1(c2cc(-c3ccc(C(=O)N(C)C)[nH]3)cc3ccccc23)CC1` [Example 276, N,N-dimethyl-5-(4-(1-(2-methyl-5-(piperazin-1-yl)benzamido)cyclopropyl)naphthalen-2-yl)-1H-pyrrole-2-carboxamide], for which the concentration for half-maximal inhibition (IC50) (read-out: IC50) is 0.003 µM.

Consider `Cc1ccc(N2CCN(C)CC2)cc1C(=O)NC1(c2cc(-c3cc(C(=O)N(C)C)c[nH]3)cc3ccccc23)CC1` [Example 277, N,N-dimethyl-5-(4-(1-(2-methyl-5-(4-methylpiperazin-1-yl)benzamido)cyclopropyl)naphthalen-2-yl)-1H-pyrrole-3-carboxamide], for which, for the setting “read-out: IC50”, the half-inhibitory concentration (IC50) amounted to 0.002 µM.

Turning to `Cc1cc(CSCc2nccn2C)ccc1C(=O)N[C@H](C)c1cc(-c2cnn(C)c2)nc2ccccc12` [Example 282, (R)-2-methyl-4-((((1-methyl-1H-imidazol-2-yl)methyl)thio)methyl)-N-(1-(2-(1-methyl-1H-pyrazol-4-yl)quinolin-4-yl)ethyl)benzamide], the IC50 (read-out: IC50) was found to be 0.006 µM. On the same count and under the same terms, for `Cc1cc(C[S+]([O-])Cc2nccn2C)ccc1C(=O)N[C@H](C)c1cc(-c2cnn(C)c2)nc2ccccc12` (stereo partly drawn) [Example 283, 2-methyl-4-((((1-methyl-1H-imidazol-2-yl)methyl)sulfinyl)methyl)-N—((R)-1-(2-(1-methyl-1H-pyrazol-4-yl)quinolin-4-yl)ethyl)benzamide] the value was 0.005 µM; for `Cc1cnc(N2CC3CCC2CN3)cc1C(=O)NC1(c2cc(-c3cnn(C)c3)nc3ccccc23)CC1` (centres unmarked) [Example 284, 2-(2,5-diazabicyclo[2.2.2]octan-2-yl)-5-methyl-N-(1-(2-(1-methyl-1H-pyrazol-4-yl)quinolin-4-yl)cyclopropyl)isonicotinamide], 0.006 µM. On to `Cc1cnc(N2CC3CCC(C2)N3)cc1C(=O)NC1(c2cc(-c3cnn(C)c3)nc3ccccc23)CC1` [Example 285, 2-(3,8-diazabicyclo[3.2.1]octan-3-yl)-5-methyl-N-(1-(2-(1-methyl-1H-pyrazol-4-yl)quinolin-4-yl)cyclopropyl)isonicotinamide], for which, where the note is “IC50 (μM)”, 0.003 µM corresponded to half-maximal inhibition (IC50). On the same count and under the same terms, for `Cc1cnc(N2CC3CCC(C2)N3C)cc1C(=O)NC1(c2cc(-c3cnn(C)c3)nc3ccccc23)CC1` [Example 287, 5-methyl-N-(1-(2-(1-methyl-1H-pyrazol-4-yl)quinolin-4-yl)cyclopropyl)-2-(8-methyl-3,8-diazabicyclo[3.2.1]octan-3-yl)isonicotinamide] the value was 0.002 µM; for `Cc1ccc(N2CC3CC(C2)N3)cc1C(=O)NC1(c2cc(-c3cnn(C)c3)nc3ccccc23)CC1` [Example 289, 5-(3,6-diazabicyclo[3.1.1]heptan-3-yl)-2-methyl-N-(1-(2-(1-methyl-1H-pyrazol-4-yl)quinolin-4-yl)cyclopropyl)benzamide], 0.001 µM. Still for that read-out and setting: under `Cc1ccc(N2CC3CC(C2)N3C)cc1C(=O)NC1(c2cc(-c3cnn(C)c3)nc3ccccc23)CC1` [Example 290, 2-methyl-N-(1-(2-(1-methyl-1H-pyrazol-4-yl)quinolin-4-yl)cyclopropyl)-5-(6-methyl-3,6-diazabicyclo[3.1.1]heptan-3-yl)benzamide] stands 0.001 µM. As for `Cc1cc(COCc2nccn2C)ccc1C(=O)N[C@H](C)c1cc(-c2cnn(C)c2)nc2ccccc12` [Example 291, (R)-2-methyl-4-(((1-methyl-1H-imidazol-2-yl)methoxy)methyl)-N-(1-(2-(1-methyl-1H-pyrazol-4-yl)quinolin-4-yl)ethyl)benzamide], the 50% inhibitory concentration (IC50) (read-out: IC50) stood at 0.001 µM. Take `Cc1ccc(N2CCN(C)CC2)cc1C(=O)NC1(c2cc(-c3ccc(C(=O)N(C)C)[nH]3)cc3ccccc23)CC1` [Example 292, N,N-dimethyl-5-(4-(1-(2-methyl-5-(4-methylpiperazin-1-yl)benzamido)cyclopropyl)naphthalen-2-yl)-1H-pyrrole-2-carboxamide]: where the note is “read-out: IC50”, the IC50 is less than 0.001 µM.

With `Cc1cc(CC(=O)Nc2ncsc2C)ccc1C(=O)N[C@H](C)c1cc(-c2cnn(C)c2)nc2ccccc12` [Example 298, (R)-2-methyl-N-(1-(2-(1-methyl-1H-pyrazol-4-yl)quinolin-4-yl)ethyl)-4-(2-((5-methylthiazol-4-yl)amino)-2-oxoethyl)benzamide], the IC50 (read-out: IC50) is less than 0.001 µM. As to `Cc1cc(C(O)C(=O)Nc2cscn2)ccc1C(=O)N[C@H](C)c1cc(-c2cnn(C)c2)nc2ccccc12` (stereo partly drawn) [Example 301, 4-(1-hydroxy-2-oxo-2-(thiazol-4-ylamino)ethyl)-2-methyl-N-((R)-1-(2-(1-methyl-1H-pyrazol-4-yl)quinolin-4-yl)ethyl)benzamide], the IC50 (read-out: IC50) came to 0.001 µM. Same read-out and setting: for `Cc1cc(C(NCc2cscn2)C(F)(F)F)ccc1C(=O)N[C@H](C)c1cc(-c2cnn(C)c2)nc2ccccc12` (stereo partly drawn) [Example 310, 2-methyl-N-((R)-1-(2-(1-methyl-1H-pyrazol-4-yl)quinolin-4-yl)ethyl)-4-(2,2,2-trifluoro-1-((thiazol-4-ylmethyl)amino)ethyl)benzamide] the value was 0.003 µM. Take `Cc1cc(CC(=O)Nc2cscn2)ccc1C(=O)NC1(c2cc(-c3cnn(C)c3)nc3ccccc23)CC1` [Example 313, 2-methyl-N-(1-(2-(1-methyl-1H-pyrazol-4-yl)quinolin-4-yl)cyclopropyl)-4-(2-oxo-2-(thiazol-4-ylamino)ethyl)benzamide]: the IC50 (read-out: IC50) worked out at 0.004 µM. On to `Cc1cc(C(=O)NC2(c3cscn3)CC2)ccc1C(=O)N[C@H](C)c1cc(-c2cnn(C)c2)nc2ccccc12` [Example 314, (R)-2-methyl-N1-(1-(2-(1-methyl-1H-pyrazol-4-yl)quinolin-4-yl)ethyl)-N4-(1-(thiazol-4-yl)cyclopropyl)terephthalamide], for which the half-maximal inhibitory concentration (IC50) (read-out: IC50) was determined as 0.002 µM. For `Cc1cc(C(=O)NCc2ncoc2C)ccc1C(=O)N[C@H](C)c1cc(-c2cnn(C)c2)nc2ccccc12` [Example 317, (R)-2-methyl-N1-(1-(2-(1-methyl-1H-pyrazol-4-yl)quinolin-4-yl)ethyl)-N4-((5-methyloxazol-4-yl)methyl)terephthalamide], the IC50 (read-out: IC50) was found to be 0.006 µM. Still for that read-out and setting: for `Cc1cc(C(C)OCc2cscn2)ncc1C(=O)N[C@H](C)c1cc(-c2cnn(C)c2)nc2ccccc12` (stereo partly drawn) [Example 321, 4-methyl-N—((R)-1-(2-(1-methyl-1H-pyrazol-4-yl)quinolin-4-yl)ethyl)-6-(1-(thiazol-4-ylmethoxy)ethyl)nicotinamide] the value was 0.003 µM. As to `Cc1cc(C(C)OCc2nccn2C)ncc1C(=O)N[C@H](C)c1cc(-c2cnn(C)c2)nc2ccccc12` (stereo partly drawn) [Example 322, 4-methyl-6-(1-((1-methyl-1H-imidazol-2-yl)methoxy)ethyl)-N-((R)-1-(2-(1-methyl-1H-pyrazol-4-yl)quinolin-4-yl)ethyl)nicotinamide], where the note is “read-out: IC50”, the IC50 worked out at 0.007 µM. The same measure, in the same setting: for `Cc1cc(COCc2cscn2)ccc1C(=O)NC1(c2cc(-c3cnn(C)c3)nc3ccccc23)CC1` [Example 323, 2-methyl-N-(1-(2-(1-methyl-1H-pyrazol-4-yl)quinolin-4-yl)cyclopropyl)-4-((thiazol-4-ylmethoxy)methyl)benzamide] the value was less than 0.001 µM; for `Cc1cc(COCc2cscn2)ccc1C(=O)NC1(c2cc(-c3cnn(CCS(C)(=O)=O)c3)nc3ccccc23)CC1` [Example 328, 2-methyl-N-(1-(2-(1-(2-(methylsulfonyl)ethyl)-1H-pyrazol-4-yl)quinolin-4-yl)cyclopropyl)-4-((thiazol-4-ylmethoxy)methyl)benzamide], less than 0.001 µM.
